Experimental data published in ChEMBL document CHEMBL1201862, “PubChem BioAssay data set” (2004).
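How tested: cells in 96-well plates exposed to compound for 48 hours at five concentrations. GI50: concentration for 50% inhibition of growth.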 The source made the active and inactive calls. Rule as the data show it: active = GI50 up to about 1.1 µM and inactive = higher.

Assays:
Test in all cases: growth of human tumour cells (NCI), 48 h
[1] = tested on: A498
[2] = tested on: CCRF-CEM
[3] = tested on: COLO 205
[4] = tested on: HL-60
[5] = tested on: KM12
[6] = tested on: M14
[7] = tested on: MOLT-4
[8] = tested on: NCI-H460
[9] = tested on: OVCAR-4
[10] = tested on: OVCAR-8
[11] = tested on: RXF 393
[12] = tested on: SNB-78
[13] = tested on: SR
[14] = tested on: SW-620
[15] = tested on: TK-10
[16] = tested on: UO-31
[17] = tested on: BT-549
[18] = tested on: MCF7
[19] = tested on: T47D

Measured: GI50

COC(=O)/C(C#N)=C1\NC(=O)c2ccccc21
inactive: [1] > 100 µM | [2] > 100 µM | [3] > 100 µM | [4] > 100 µM | [5] > 100 µM | [6] > 100 µM | [7] > 100 µM | [8] > 100 µM | [9] > 100 µM | [10] > 100 µM | [11] > 100 µM | [12] > 100 µM | [13] > 100 µM | [14] > 100 µM | [15] > 100 µM | [16] > 100 µM

C#Cc1cccc(N2C(=O)CCC2=O)c1
inactive: [1] 15.6 µM | [17] > 10 µM | [2] 1.56 µM | [3] 6.73 µM | [4] 2.25 µM | [5] 13.6 µM | [6] 7.62 µM | [18] 19.4 µM | [7] 2.77 µM | [8] 27.5 µM | [9] 13.1 µM | [10] 18.5 µM | [12] 18.5 µM | [13] 1.74 µM | [14] 5.61 µM | [19] 18.9 µM | [15] 16.2 µM | [16] 17.7 µM

CC(C)=CC(=O)CC(=O)C(=O)Nc1ccc(Cl)c(Cl)c1
inactive: [1] > 100 µM | [2] > 100 µM | [3] > 100 µM | [4] > 100 µM | [5] > 100 µM | [6] > 100 µM | [7] > 100 µM | [8] > 100 µM | [9] > 100 µM | [10] > 100 µM | [11] > 100 µM | [12] > 100 µM | [13] > 100 µM | [14] > 100 µM | [15] > 100 µM | [16] > 100 µM

Clc1cccc(Cl)c1C1SCc2nc3ccccc3n21 (stereo not drawn)
inactive: [1] > 100 µM | [2] 54.5 µM | [3] > 100 µM | [4] 3.97 µM | [5] > 100 µM | [6] > 100 µM | [7] 19.1 µM | [8] 48.6 µM | [9] 83.9 µM | [10] > 100 µM | [11] > 100 µM | [12] > 100 µM | [13] 5.38 µM | [14] 46.7 µM | [15] > 100 µM | [16] > 100 µM

CC1(C)O[C@@H](CCl)C[C@H](C#N)O1
inactive: [1] > 100 µM | [2] > 100 µM | [3] > 100 µM | [4] > 100 µM | [5] > 100 µM | [6] > 100 µM | [7] > 100 µM | [8] > 100 µM | [9] > 100 µM | [10] > 100 µM | [11] > 100 µM | [12] > 100 µM | [13] > 100 µM | [14] > 100 µM | [15] > 100 µM | [16] > 100 µM

CC[C@H](C)N(CCN)C(=O)c1cc2ccccc2c(-c2ccccc2Cl)n1
inactive: [1] 4.07 µM | [2] 3.3 µM | [3] 4.54 µM | [4] 7.67 µM | [5] 14.9 µM | [6] 17.8 µM | [7] 7.31 µM | [8] 14.1 µM | [9] 14.6 µM | [10] 14.2 µM | [11] 6.55 µM | [12] 14.3 µM | [13] 10.8 µM | [14] 14.9 µM | [15] 12.1 µM | [16] 12.7 µM

CC(C)(C)/N=C\N(C=C(c1ccccc1)c1ccccc1)C1CCCCC1
inactive: [1] 23.3 µM | [2] 34.8 µM | [3] 22.7 µM | [5] 36.2 µM | [8] 38.2 µM | [9] 39.4 µM | [10] 91.8 µM | [11] 19.4 µM | [12] 69 µM | [13] 18 µM | [14] 36.3 µM | [15] 78.3 µM

O=C1c2ccccc2C(=O)N1CC#CCO
inactive: [1] > 100 µM | [2] > 100 µM | [4] > 100 µM | [5] > 100 µM | [6] > 100 µM | [7] > 100 µM | [8] > 100 µM | [9] > 100 µM | [10] > 100 µM | [11] > 100 µM | [12] > 100 µM | [13] > 100 µM | [14] > 100 µM | [15] > 100 µM | [16] > 100 µM

CC1=NOC(=O)/C1=C/c1cccc2ccccc12
inactive: [1] > 100 µM | [2] > 100 µM | [3] > 100 µM | [4] > 100 µM | [5] > 100 µM | [6] > 100 µM | [7] > 100 µM | [8] > 100 µM | [9] > 100 µM | [10] > 100 µM | [11] > 100 µM | [12] > 100 µM | [13] > 100 µM | [14] 54 µM | [15] > 100 µM | [16] > 100 µM

Cn1ccnc1C(c1nccn1C)C(C)(C)[N+](=O)[O-]
inactive: [1] > 100 µM | [2] > 100 µM | [3] > 100 µM | [4] > 100 µM | [5] > 100 µM | [6] > 100 µM | [7] > 100 µM | [8] > 100 µM | [9] > 100 µM | [10] > 100 µM | [11] > 100 µM | [12] > 100 µM | [13] > 100 µM | [14] > 100 µM | [15] > 100 µM

O=C1OCC/C1=N/O
inactive: [1] > 100 µM | [2] > 100 µM | [3] > 100 µM | [4] > 100 µM | [5] > 100 µM | [6] > 100 µM | [7] > 100 µM | [8] > 100 µM | [9] > 100 µM | [10] > 100 µM | [11] > 100 µM | [12] > 100 µM | [13] > 100 µM | [14] > 100 µM | [15] > 100 µM | [16] > 100 µM

COc1ccc(/C=C(\NC(=O)c2ccccc2)c2nc3ccccc3[nH]2)cc1OC
inactive: [1] > 100 µM | [2] 85.9 µM | [3] > 100 µM | [4] > 100 µM | [5] > 100 µM | [6] > 100 µM | [7] 79.1 µM | [8] > 100 µM | [9] > 100 µM | [10] > 100 µM | [11] > 100 µM | [12] > 100 µM | [13] > 100 µM | [14] > 100 µM | [15] > 100 µM | [16] 99.3 µM

Cn1cnc([N+](=O)[O-])c1Sc1n[nH]c(-c2ccc(Cl)cc2)n1
inactive: [1] 22.4 µM | [2] 11.8 µM | [3] 17.1 µM | [5] 18.5 µM | [6] 15 µM | [7] 12.2 µM | [8] 20.8 µM | [9] 18.3 µM | [10] 16.3 µM | [11] 13.3 µM | [12] 19.8 µM | [13] 13.1 µM | [14] 21.7 µM | [15] 17.7 µM | [16] 19.1 µM
